Test results published in patent US11123355B2, “Antiviral benzyl-amine phosphodiamide compounds” (Merck Sharp & Dohme Corp., priority 2016, dated 2021).
Like-named read-outs stand apart in the source and are kept apart here.

Experiments:
[1] = Prodrug Stability Assay in Bio-Relevant Media (FaSSIF with Pancreatin); assay type: in vitro ADME; conditions: 0.5 mg/mL Pancreatin in FaSSIF, 37° C.; HPLC peak area of prodrug at 5 h divided by that at 0 h
Experimental: Prodrug Stability Assay in Bio-Relevant Media
The following assay was employed to evaluate the stability of the prodrugs in simulated gastrointestinal tract conditions. Preparation of fasted state simulated intestinal fluid (FaSSIF) using Phares SIF Powder was carried out according to protocols from Phare Drug Delivery AG (Baselland, Switzerland). For sample preparation, 10 μL stock solutions (10 mM) of prodrug substance in DMSO was added to 990 μL of 0.5 mg/mL Pancreatin solution (Fisher CAS #8049-47-6) in FaSSIF. Two samples were prepared for each compound. If the sample was a clear solution, it was directly analyzed by HPLC. If the sample was not clear, the sample was diluted with 100% MeCN, maintained at 37° C. and observed 5 h later. If the sample was clear, HPLC analysis was directly performed. If the sample was still not clear, the sample was diluted with 100% ACN and assayed by HPLC. All the samples were vortexed for 3 min and observed before injection. For the diluted samples, the area is multiplied by a dilution factor when the data is analyzed. The analysis was carried out with an Agilent 1100 series HPLC with autosampler. The column was a Poroshell 120 EC-C18, 4.6×50 mm, 2.7 μm. The flow rate was 1.8 mL/min, and the injection volume was 5 or 10 μL. UV detection was in the range 210-400 nm. The mobile phase consisted of solvent A (water plus 10 mM tetrabutylammonium bromide) and solvent B (acetonitrile) with a gradient of: 90% solvent A at 0 min, changing to 95% solvent B over 6 min, maintaining for 1.5 min, then reverting to 90% solvent A over 1.6 min. The HPLC peak area of the prodrug at 5 h was divided by the HPLC peak area of the prodrug at 0 h, to generate the % claimed parent ratio, which is summarized in Table 2 for gastrointestinal (GI) Tract stability.

[2] = tested on: HIV-1 (H9/IIB strain); experiment: Multiple Round HIV-1 Infection Assay (Viking Assay) in MT4-GFP cells; assay type: cell-based; conditions: inhibition of reproductive ratio R0
How it was run: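 MT-4 cells with tat/rev-dependent GFP reporter infected overnight with virus at MOI ~0.01, then incubated in RPMI with 10% or 50% normal human serum with 10-point 3-fold dilutions (typically 8.4 μM–0.42 nM final). Green cells counted at ~48 and ~72 h to give R0; IC50 from 4-parameter fit of R0 inhibition.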

[3] = Human immunodeficiency virus 1, MT4-GFP cells infected with HIV-1, 10% normal human serum, read-out: Viking, IC50 (10% NHS)
[4] = Human immunodeficiency virus 1, MT4-GFP cells infected with HIV-1, 50% normal human serum, read-out: Viking, IC50 (50% NHS)
[5] = MT4-GFP cells infected with HIV-1, 10% normal human serum, read-out: Viking, IC50 (10% NHS)
[6] = MT4-GFP cells infected with HIV-1, 50% normal human serum, read-out: Viking, IC50 (50% NHS)

With `CCCOC(=O)C(C)(C)NP(=O)(CO[C@H](C)Cn1cnc2c(N)ncnc21)N[C@H](C)c1ccc(Cl)cc1` (single isomer, unassigned) [Example 1B] the “GI Tract stability (%)” value [1] was 98.7%, the IC50 [2, 3] was 4.7 nM and the IC50 [2, 4] was 36 nM.

In the case of `CCCOC(=O)C(C)(C)NP(=O)(CO[C@H](C)Cn1cnc2c(N)ncnc21)N[C@H](C)c1ccc(OC(F)(F)F)cc1` (single isomer, unassigned) [Example 3B], the “GI Tract stability (%)” value [1] is reported as 99.4%, the IC50 [2, 3] is reported as 1.8 nM and the IC50 [2, 4] is reported as 8.6 nM.

For `CCCOC(=O)C(C)(C)NP(=O)(CO[C@H](C)Cn1cnc2c(N)ncnc21)N[C@H](c1ccc(OC(F)(F)F)cc1)C(F)(F)F` (stereo partly shown) [Example 4A], the “GI Tract stability (%)” value [1] was 95.8%, the IC50 [2, 5] was 3.5 nM and the IC50 [2, 6] was 29 nM.

In the case of `CCCOC(=O)C(C)(C)N[P@@](=O)(CO[C@H](C)Cn1cnc2c(N)ncnc21)NCc1ccc(OC(F)(F)F)cc1` [Example 7A, propyl 2-(((R)-((((R)-1-(6-amino-9H-purin-9-yl)propan-2-yl)oxy)methyl)((4-(trifluoromethoxy)benzyl)amino)phos-phoryl)amino)-2-methylpropanoate and propyl 2-(((S)-((((R)-1-(6-amino-9H-purin-9-yl)propan-2-yl)oxy)methyl)((4-(trifluoromethoxy)benzyl)amino)phos-phoryl)amino)-2-methylpropanoate], the “GI Tract stability (%)” value [1] is reported as 96.0%, the IC50 [2, 5] is reported as 4.5 nM and the IC50 [2, 6] is reported as 27 nM.

In the case of `CCCOC(=O)C(C)(C)N[P@@](=O)(CO[C@H](C)Cn1cnc2c(N)ncnc21)N[C@H](C)c1cccc(F)c1` [Example 9B, propyl 2-(((R)-((((R)-1-(6-amino-9H-purin-9-yl)propan-2-yl)oxy)methyl)(((R)-1-(3-fluorophenyl)ethyl)amino)phosphoryl)ami-no)-2-methylpropanoate and propyl 2-(((S)-((((R)-1-(6-amino-9H-purin-9-yl)propan-2-yl)oxy)methyl)(((R)-1-(3-fluorophenyl)ethyl)amino)phosphoryl)ami-no)-2-methylpropanoate], the “GI Tract stability (%)” value [1] is reported as 90.9%, the IC50 [2, 5] is reported as 12 nM and the IC50 [2, 6] is reported as 130 nM.

In the case of `CCCOC(=O)C(C)(C)NP(=O)(CO[C@H](C)Cn1cnc2c(N)ncnc21)N[C@H](C)c1ccc(C(F)(F)F)cc1` (stereo partly drawn) [Example 12B, propyl 2-(((R)-((((R)-1-(6-amino-9H-purin-9-yl)propan-2-yl)oxy)methyl)(((R)-1-(4-(trifluoromethyl)phenyl)ethyl)amino)phos-phoryl)amino)-2-methylpropanoate and propyl 2-(((S)-((((R)-1-(6-amino-9H-purin-9-yl)propan-2-yl)oxy)methyl)(((R)-1-(4-(trifluoromethyl)phenyl)ethyl)amino)phos-phoryl)amino)-2-methylpropanoate], the “GI Tract stability (%)” value [1] is reported as 99.1%, the IC50 [2, 5] is reported as 2.2 nM and the IC50 [2, 6] is reported as 11 nM.

In the case of `CCCOC(=O)C(C)(C)NP(=O)(CO[C@H](C)Cn1cnc2c(N)ncnc21)N[C@@H](C)c1ccc(OC(F)(F)F)cc1` (stereo partly drawn) [Example 19A, propyl 2-(((R)-((((R)-1-(6-amino-9H-purin-9-yl)propan-2-yl)oxy)methyl)(((S)-1-(4-(trifluoromethoxy)phenyl)ethyl)amino)phos-phoryl)amino)-2-methylpropanoate and propyl 2-(((S)-((((R)-1-(6-amino-9H-purin-9-yl)propan-2-yl)oxy)methyl)(((S)-1-(4-(trifluoromethoxy)phenyl)ethyl)amino)phos-phoryl)amino)-2-methylpropanoate], the “GI Tract stability (%)” value [1] is reported as 98.1%, the IC50 [2, 5] is reported as 2.7 nM and the IC50 [2, 6] is reported as 12 nM.

In the case of `CCCOC(=O)C(C)(C)NP(=O)(CO[C@H](C)Cn1cnc2c(N)ncnc21)N[C@H](C)c1ccc(OC(F)(F)F)cc1C` (stereo partly drawn) [Example 21B, Propyl 2-(((R)-((((R)-1-(6-amino-9H-purin-9-yl)propan-2-yl)oxy)methyl)(((R)-1-(2-methyl-4-(trifluoromethoxy)phenyl)ethyl)amino)phos-phoryl)amino)-2-methylpropanoate and propyl 2-(((S)-((((R)-1-(6-amino-9H-purin-9-yl)propan-2-yl)oxy)methyl)(((R)-1-(2-methyl-4-(trifluoromethoxy)phenyl)ethyl)amino)phos-phoryl)amino)-2-methylpropanoate], the “GI Tract stability (%)” value [1] is reported as 71.5%, the IC50 [2, 5] is reported as 1 nM and the IC50 [2, 6] is reported as 5.8 nM.

For `CCCOC(=O)C(C)(C)NP(=O)(CO[C@H](C)Cn1cnc2c(N)ncnc21)N[C@H](c1cccc(OC)c1)C(F)(F)F` (stereo partly drawn) [Example 25A, propyl 2-(((R)-((((R)-1-(6-amino-9H-purin-9-yl)propan-2-yl)oxy)methyl)(((R)-2,2,2-trifluoro-1-(3-methoxyphenyl)ethyl)amino)phosphoryl)a-mino)-2-methylpropanoate and propyl 2-(((S)-((((R)-1-(6-amino-9H-purin-9-yl)propan-2-yl)oxy)methyl)(((R)-2,2,2-trifluoro-1-(3-methoxyphenyl)ethyl)amino)phosphoryl)a-mino)-2-methylpropanoate], the “GI Tract stability (%)” value [1] was 70.3%, the IC50 [2, 5] was 4.6 nM and the IC50 [2, 6] was 54 nM.

In the case of `CCCOC(=O)C(C)(C)N[P@@](=O)(CO[C@H](C)Cn1cnc2c(N)ncnc21)N[C@H](C)c1ccc(Cl)cc1C` [Example 29B, propyl 2-(((R)-((((R)-1-(6-amino-9H-purin-9-yl)propan-2-yl)oxy)methyl)(((R)-1-(4-chloro-2-methylphenyl)ethyl)amino)phosphoryl)ami-no)-2-methylpropanoate and propyl 2-(((S)-((((R)-1-(6-amino-9H-purin-9-yl)propan-2-yl)oxy)methyl)(((R)-1-(4-chloro-2-methyphenyl)ethyl)amino)phosphoryl)ami-no)-2-methylpropanoate], the “GI Tract stability (%)” value [1] is reported as 12.1%, the IC50 [2, 5] is reported as 2.5 nM and the IC50 [2, 6] is reported as 21 nM.

In the case of “propyl 2-(((R)-((((R)-1-(6-amino-9H-purin- 9-yl)propan-2-yl)oxy)methyl)(((R)-1-(p- tolyl)ethyl)amino)phosphoryl)amino)-2- methylpropanoate and propyl 2-(((S)-((((R)-1-(6-amino-9H-purin- 9-yl)propan-2-yl)oxy)methyl)(((R)-1-(p- tolyl)ethyl)amino)phosphoryl)amino)-2- methylpropanoate [Example 16A]”, the IC50 [2, 5] is reported as 83 nM and the IC50 [2, 6] is reported as 440 nM.

In the case of “propyl 2-(((R)-((((R)-1-(6-amino-9H-purin- 9-yl)propan-2-yl)oxy)methyl)(((R)-1-(p- tolyl)ethyl)amino)phosphoryl)amino)-2- methylpropanoate and propyl 2-(((S)-((((R)-1-(6-amino-9H-purin- 9-yl)propan-2-yl)oxy)methyl)(((R)-1-(p- tolyl)ethyl)amino)phosphoryl)amino)-2- methylpropanoate [Example 16B]”, the IC50 [2, 5] is reported as 4.6 nM and the IC50 [2, 6] is reported as 27 nM.

“propyl 2-(((R)-((((R)-1-(6-amino-9H-purin- 9-yl)propan-2-yl)oxy)methyl)(((R)-2,2,2- trifluoro-1-(p- tolyl)ethyl)amino)phosphoryl)amino)-2- methylpropanoate and propyl 2-(((S)-((((R)-1-(6-amino-9H-purin- 9-yl)propan-2-yl)oxy)methyl)(((R)-2,2,2- trifluoro-1-(p- tolyl)ethyl)amino)phosphoryl)amino)-2- methylpropanoate [Example 26B]” showed an IC50 [2, 5] of 34 nM and an IC50 [2, 6] of 200 nM.

With “propyl 2-(((R)-((((R)-1-(6-amino-9H-purin- 9-yl)propan-2-yl)oxy)methyl)(((S)-1-(p- tolyl)ethyl)amino)phosphoryl)amino)-2- methylpropanoate and propyl 2-(((S)-((((R)-1-(6-amino-9H-purin- 9-yl)propan-2-yl)oxy)methyl)(((S)-1-(p- tolyl)ethyl)amino)phosphoryl)amino)-2- methylpropanoate [Example 18A]” the IC50 [2, 5] was 13 nM and the IC50 [2, 6] was 140 nM.

For “propyl 2-(((R)-((((R)-1-(6-amino-9H-purin- 9-yl)propan-2-yl)oxy)methyl)(((S)-1-(p- tolyl)ethyl)amino)phosphoryl)amino)-2- methylpropanoate and propyl 2-(((S)-((((R)-1-(6-amino-9H-purin- 9-yl)propan-2-yl)oxy)methyl)(((S)-1-(p- tolyl)ethyl)amino)phosphoryl)amino)-2- methylpropanoate [Example 18B]”, the IC50 [2, 5] was 37 nM and the IC50 [2, 6] was 520 nM.
